# Assay results: US20180353460A1, “METHODS OF TREATING UROLOGICAL DISORDERS USING SARMs” (priority 2014, published 2018)
# Values joined by “and” are separate entries in the source; they are usually repeats but may differ in a detail not shown here. Identical values can stand only once.
# Tests used:
# human subjects = assay: Safety profile from other clinical trials (treatment related adverse events); type: in vivo
# Procedure: Described is the safety profile of Compound IX 3 mg PO daily in subjects with SUI. See Table 8 which is historical data from other clinical trials establishing the safety profile of Compound IX in human subjects. See also the lack of increase in endometrial thickness in Example 19.
# For the PGI-S measure, 12 patients reported symptoms as “moderate” or “severe” at baseline; whereas only 3 patients reported “moderate” symptoms and no patients reported “severe” at 12 weeks (FIG. 12A).
# Mean stress leaks decreased by 81 percent from baseline over 12 weeks (5.17 leaks/day at baseline to 1.0 leaks/day at week 12), and the reductions in daily stress leaks following completion of treatment have been sustained as subjects are being followed for up to 7 months post-treatment to assess the durability of treatment effect (0.63 leaks/day at 40 weeks (7 months post-treatment) in the first nine subjects). No subject has relapsed to their baseline levels. Urge urinary incontinence was also observed in 11 subjects, and Compound IX produced a 68% reduction from baseline over 12 weeks in these patients, which was also observed to be durable for at least 7 months (N=7). […] All were consistent with AR pharmacology and previous clinical trials with Compound IX. Based on the results from this Phase 2 proof-of-concept study with Compound IX, a randomized, placebo-controlled Phase 2 clinical trial to evaluate the change in frequency of daily stress urinary incontinence episodes following 12 weeks of treatment was initiated. The trial will evaluate the safety and efficacy of Compound IX (1 mg and 3 mg) compared with placebo in postmenopausal women with SUI.
# [1] = test system: levator ani muscle, urethra and endometrium; assay: Proof of concept clinical study: quantitative pelvic MRI; type: in vivo, human
# Source text: Secondary Objectives: • To describe the effect of 12 weeks of treatment of Compound IX on the number of voids/day as assessed by the 3 days voiding diary. […] See Tables 2 (individual subject data) and Tables 4-6 (mean pad weight data for sites 1, 2, and 3, respectively), and FIG. 17 for mean and median reductions in pad weights from baseline to week 12 (across all sites). • To describe the effect of 12 weeks of treatment of Compound IX on SUI as assessed by the Urethral Pressure Profile (UPP). The UPP assessment was removed from the protocol because it is invasive and not standard of care. […] See summary data for all subjects across the 3 sites reported in Table 7 and FIGS. 13A and 13B. • Described is the effect of 12 weeks of treatment of Compound IX on subject reported impression of stress urinary incontinence severity as assessed by the Patient Global Impression of Severity Scale (PGI-S). See summary data for all subjects across the 3 sites reported in FIG. 12A. • Described is the effect of 12 weeks of treatment of Compound IX on subject reported impression of improvement as assessed by the Patient Global Impression of Improvement Scale (PGI-I). See summary data for all subjects across the 3 sites reported in FIG. 12B. • Described is the effect of 12 weeks of treatment of Compound IX on subject reported urogenital distress as assessed by the Urinary Distress Inventory Questionnaire (UDI-6). See summary data for all subjects across of 3 sites reported in Table 7 and FIG. 12C. • Described is the effect of 12 weeks of treatment of Compound IX on subject reported impact of urinary incontinence on daily life as assessed by the Incontinence Impact Questionnaire (IIQ-7). See summary data for all subjects across the 3 sites reported in Table 7 and FIG. 12D. • Described is the effect of 12 weeks of treatment of Compound IX on subject reported sexual function as indicated on the completion of the Female Sexual Function Index Questionnaire (FSFI). See summary data for all subjects across the 3 sites reported in Table 7 and FIG. 15. • Described is the effect of 12 weeks of treatment of Compound IX on pelvic floor muscles as measured by MRI. See FIG. 11 wherein the pelvic MRI for one representative subject on trial is reported at baseline and at 12 weeks, FIG. 16 wherein the pelvic MRI's for three representative subjects on trial are reported at baseline and at 12 weeks, and Example 19 and Table 13 which provide individual measurements of levator ani thickness, inner and outer diameter of the urethra, and endometrial thickness, and mean changes in the same from baseline to week 12.
# Quantitative MRI was used to visualize the pelvic floor of all post-menopausal subjects with SUI.
# In a continuation of the same study from Example 3, quantitative MRI was used to visualize the pelvic floor of 17 post-menopausal subjects with SUI. MRI was used to visualize and measure the mean thickness of the levator ani muscle, inner and outer diameter of the urethra, and the endometrial thickness of patients on trial at baseline and at the MRI visits approximately 12 weeks after baseline (exact times between baseline and second MRI are given). All data analysis used a significance value of 0.05 with one-tailed paired t-test. The mean change in each measurement and the statistical significance calculation for each value are given below: […]
# [2] = 17 subjects, baseline to about week 12
# [3] = individual patients, about 12 weeks
structure (smiles),measurement,setting,value
"C[C@](O)(COc1ccc(C#N)cc1)C(=O)Nc1ccc(C#N)c(C(F)(F)F)c1 [Compound IX, (S)—N-(4-Cyano-3-(trifluoromethyl)phenyl)-3-(4-cyanophenoxy)-2-hydroxy-2-methylpropanamide]","Abdominal Pain, figure in parentheses (percent of subjects)",human subjects; N = 896,(0.8)
same,"Abdominal Pain, number of subjects",human subjects; N = 896,7
same,"Alanine Aminotransferase Increased, figure in parentheses (percent of subjects)",human subjects; N = 896,(2.1)
same,"Alanine Aminotransferase Increased, number of subjects",human subjects; N = 896,19
same,"Any Treatment Related Adverse Event, figure in parentheses (percent of subjects)",human subjects; N = 896,(24.4)
same,"Any Treatment Related Adverse Event, number of subjects",human subjects; N = 896,219
same,"Back pain, figure in parentheses (percent of subjects)",human subjects; N = 896,(1.5)
same,"Back pain, number of subjects",human subjects; N = 896,13
same,"Constipation, figure in parentheses (percent of subjects)",human subjects; N = 896,(1.3)
same,"Constipation, number of subjects",human subjects; N = 896,12
same,"Diarrhea, figure in parentheses (percent of subjects)",human subjects; N = 896,(2.1)
same,"Diarrhea, number of subjects",human subjects; N = 896,19
same,"Dizziness Postural, figure in parentheses (percent of subjects)",human subjects; N = 896,(0.6)
same,"Dizziness Postural, number of subjects",human subjects; N = 896,5
same,"Dizziness, figure in parentheses (percent of subjects)",human subjects; N = 896,(2.0)
same,"Dizziness, number of subjects",human subjects; N = 896,18
same,"Dyspnea, figure in parentheses (percent of subjects)",human subjects; N = 896,(0.9)
same,"Dyspnea, number of subjects",human subjects; N = 896,8
same,"Fatigue, figure in parentheses (percent of subjects)",human subjects; N = 896,(0.9)
same,"Fatigue, number of subjects",human subjects; N = 896,8
same,"Headache, figure in parentheses (percent of subjects)",human subjects; N = 896,(5.7)
same,"Headache, number of subjects",human subjects; N = 896,51
same,"Hot Flush, figure in parentheses (percent of subjects)",human subjects; N = 896,(0.7)
same,"Hot Flush, number of subjects",human subjects; N = 896,6
same,"Hyperhidrosis, figure in parentheses (percent of subjects)",human subjects; N = 896,(1.0)
same,"Hyperhidrosis, number of subjects",human subjects; N = 896,9
same,"Insomnia, figure in parentheses (percent of subjects)",human subjects; N = 896,(0.6)
same,"Insomnia, number of subjects",human subjects; N = 896,5
same,"Muscle Spasms, figure in parentheses (percent of subjects)",human subjects; N = 896,(0.7)
same,"Muscle Spasms, number of subjects",human subjects; N = 896,6
same,"Myalgia, figure in parentheses (percent of subjects)",human subjects; N = 896,(0.7)
same,"Myalgia, number of subjects",human subjects; N = 896,6
same,"Nausea, figure in parentheses (percent of subjects)",human subjects; N = 896,(3.0)
same,"Nausea, number of subjects",human subjects; N = 896,27
same,"Pain in Extremity, figure in parentheses (percent of subjects)",human subjects; N = 896,(1.2)
same,"Pain in Extremity, number of subjects",human subjects; N = 896,11
same,"Pruritus, figure in parentheses (percent of subjects)",human subjects; N = 896,(1.0)
same,"Pruritus, number of subjects",human subjects; N = 896,9
same,"Rash, figure in parentheses (percent of subjects)",human subjects; N = 896,(0.6)
same,"Rash, number of subjects",human subjects; N = 896,5
same,"Somnolence, figure in parentheses (percent of subjects)",human subjects; N = 896,(1.0)
same,"Somnolence, number of subjects",human subjects; N = 896,9
same,"Vomiting, figure in parentheses (percent of subjects)",human subjects; N = 896,(1.3)
same,"Vomiting, number of subjects",human subjects; N = 896,12
same,general safety and tolerability,"human subjects; about 1,200 individuals, doses 0.1 mg to 100 mg",generally safe and well tolerated
same,mean change in levator ani muscle thickness,"[1]; 17 subjects, baseline 4.79 mm to week 12, p=0.006",1.15 mm
same,mean change in urethra inner diameter,[1]; [2],0.07 cm
same,mean change in urethra outer diameter,[1]; [2],0.07 cm
same,"Endometrial stripe, follow up MRI",[1]; [3],2 mm (9×) and 3 mm (2×) and 5 mm and 4 mm (2×)
same,"Mean levator ani (LA) thickness at the level of the proximal urethra, follow up MRI",[1]; [3],4 mm (3×) and 5 mm (3×) and 6 mm (4×) and 1 mm and 6.5 mm and 8 mm and 10.5 mm and 7 mm (2×) and 10 mm
same,"Urethra inner diameter, follow up MRI",[1]; [3],1.4 cm (2×) and 1.1 cm (3×) and 1.2 cm (2×) and 1 cm (4×) and 0.9 cm (2×) and 1.3 cm (4×)
same,"Urethra outer diameter, follow up MRI",[1]; [3],1.7 cm (2×) and 1.6 cm (5×) and 1.8 cm (3×) and 1.4 cm (2×) and 1.2 cm and 2 cm and 1.9 cm and 1.3 cm (2×)
same,mean increase in inner urethral muscle diameter,"[1]; week 12, baseline 10.7 mm, p=0.002",0.7 mm
same,mean increase in outer urethral muscle diameter,"[1]; week 12, baseline 15.4 mm, p=0.0003",0.7 mm
